Data published in patent publication US9376442B2, “Methylpyrrolopyrimidinecarboxamides” (Takeda GmbH, priority 2009, dated 2016).

Experiments:
[1] = biological target: T1, PDE4B1 (Homo sapiens, UniProt Q07343); test: Inhibition of type 4 phosphodiesterase (PDE4) activity, modified SPA test with recombinant PDE4B1 expressed in SF21 insect cells; format: biochemical; conditions: recombinant PDE4B1, 0.5 μM cAMP, read-out: PDE4B1 inhibitory values [measured as −log IC50 (mol/l)] (converted)
T1 construct: made in house; host or cells: SF21 insect cells (baculovirus; pCRBac vector), 1000 x g supernatant of homogenate
Procedure, shortened: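 Modified [3H]cAMP SPA using 1000×g supernatant of SF21 cells expressing recombinant human PDE4B1, in 20 mM Tris pH 7.4, 0.1 mg/ml BSA, 5 mM Mg2+, 0.5 μM cAMP. After 5 min preincubation at 37 °C, 15 min reaction, stopped with SPA beads plus IBMX; IC50 by non-linear regression.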

[2] = biological target: T2, PDE5A1 (Homo sapiens, UniProt O76074); test: Inhibition of type 5 phosphodiesterase (PDE5) activity, modified SPA test with human platelet lysate; format: biochemical; conditions: 0.5 μM cGMP, read-out: PDE5A1 inhibitory values [measured as −log IC50 (mol/l)] (converted)
T2 construct: from tissue; host or cells: human platelets from fresh donor blood (10,000 x g supernatant of sonicated lysate)
Procedure, shortened: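 Enzyme source is lysate from human platelets (10,000 g supernatant). Compound preincubated 5 min at 37° C in Tris pH 7.4 containing 1 μM motapizone and 10 nM of a PDE2 inhibitor. Reaction started with 0.5 μM cGMP ([3H] tracer) and run 15 min; SPA read-out, IC50 by non-linear regression.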

T1 sequence (Q07343 whole entry): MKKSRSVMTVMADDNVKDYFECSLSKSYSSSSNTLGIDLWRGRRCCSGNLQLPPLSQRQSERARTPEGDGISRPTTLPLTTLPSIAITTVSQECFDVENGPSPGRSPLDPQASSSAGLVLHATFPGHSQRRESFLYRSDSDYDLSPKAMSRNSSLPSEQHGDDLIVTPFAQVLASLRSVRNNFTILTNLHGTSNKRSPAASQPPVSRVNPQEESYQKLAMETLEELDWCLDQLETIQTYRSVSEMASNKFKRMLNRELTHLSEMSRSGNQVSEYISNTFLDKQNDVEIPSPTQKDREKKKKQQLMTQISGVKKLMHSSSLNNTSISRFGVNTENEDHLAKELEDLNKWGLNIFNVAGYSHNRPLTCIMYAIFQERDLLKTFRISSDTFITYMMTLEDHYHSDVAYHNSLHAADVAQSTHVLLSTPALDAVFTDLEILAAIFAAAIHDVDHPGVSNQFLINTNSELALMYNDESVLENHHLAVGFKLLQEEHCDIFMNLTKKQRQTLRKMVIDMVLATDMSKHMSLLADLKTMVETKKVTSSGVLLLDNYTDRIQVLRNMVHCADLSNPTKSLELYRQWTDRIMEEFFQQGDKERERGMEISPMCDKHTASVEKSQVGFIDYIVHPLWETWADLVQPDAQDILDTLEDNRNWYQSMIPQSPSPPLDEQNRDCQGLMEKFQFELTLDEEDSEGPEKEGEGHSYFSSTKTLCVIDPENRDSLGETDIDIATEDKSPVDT

| IC50 [1] | IC50 [2] | Compound |
| --- | --- | --- |
| < 100 nM | < 1 nM | COCC(=O)N[C@H]1CC[C@H](NC(=O)c2c(C)[nH]c3c(-c4cc(C(F)F)ccc4OCC4CC4)ncnc23)C[C@@H]1C (relative stereo) [Example P191, 4-[2-(Cyclopropylmethoxy)-5-(difluoromethyl)phenyl]-N-{(1S*,3S*,4S*)-4-[(methoxyacetyl)amino]-3-methylcyclohexyl}-6-methyl-5H-pyrrolo[3,2-d]pyrimidine-7-carboxamide] |
| < 100 nM | < 1 nM | CC(=O)N[C@@H]1CC[C@@H](NC(=O)c2c(C)[nH]c3c(-c4cc(C(F)F)ccc4OCC4CC4)ncnc23)[C@H](F)C1 (relative stereo) [Example P159, N-[(1R*,2R*,4R*)-4-(Acetylamino)-2-fluorocyclohexyl]-4-[2-(cyclopropylmethoxy)-5-(difluoromethyl)phenyl]-6-methyl-5H-pyrrolo[3,2-d]pyrimidine-7-carboxamide] |
| 100 to 1000 nM | 1 to 10 nM | CCc1ccc(OCC2CC2)c(-c2ncnc3c(C(=O)N[C@@H]4CN(C(=O)COC)C[C@H]4O)c(C)[nH]c23)c1 (relative stereo) [Example E156, 4-[2-(Cyclopropylmethoxy)-5-ethylphenyl]-N-[(3R*,4R*)-4-hydroxy-1-(methoxyacetyl)pyrrolidin-3-yl]-6-methyl-5H-pyrrolo[3,2-d]pyrimidine-7-carboxamide] |
| 100 to 1000 nM | < 1 nM | COCC(=O)N1CCC(NC(=O)c2c(C)[nH]c3c(-c4cc(OC)ccc4OCC4CC4)ncnc23)CC1 [Example E68, 4-[2-(Cyclopropylmethoxy)-5-methoxyphenyl]-N-[1-(methoxyacetyl)piperidin-4-yl]-6-methyl-5H-pyrrolo[3,2-d]pyrimidine-7-carboxamide] |
| < 100 nM | < 1 nM | CCC(=O)N[C@H]1CC[C@H](NC(=O)c2c(C)[nH]c3c(-c4cc(CC)ccc4OCC4CC4)ncnc23)CC1 [Example E149, 4-[2-(Cyclopropylmethoxy)-5-ethylphenyl]-6-methyl-N-[trans-4-(propanoylamino)cyclohexyl]-5H-pyrrolo[3,2-d]pyrimidine-7-carboxamide] |
| < 100 nM | < 1 nM | Cc1ccc(OCC2CC2)c(-c2ncnc3c(C(=O)N[C@H]4CC[C@@H](NC(=O)[C@H](C)O)CC4)c(C)[nH]c23)c1 [Example F56, 4-[2-(Cyclopropylmethoxy)-5-methylphenyl]-N-(cis-4-{[(2S)-2-hydroxypropanoyl]amino}cyclohexyl)-6-methyl-5H-pyrrolo[3,2-d]pyrimidine-7-carboxamide] |
| < 100 nM | < 1 nM | Cc1[nH]c2c(-c3cc(F)ccc3OCC3CC3)ncnc2c1C(=O)N[C@H]1CC[C@H](NC(=O)CO)CC1 [Example F25, 4-[2-(Cyclopropylmethoxy)-5-fluorophenyl]-N-[trans-4-(glycoloylamino)cyclohexyl]-6-methyl-5H-pyrrolo[3,2-d]pyrimidine-7-carboxamide] |
| 100 to 1000 nM | < 1 nM | COc1ccc(OCC2CC2)c(-c2ncnc3c(C(=O)N[C@H]4CC[C@@H](NC(=O)[C@H](C)O)CC4)c(C)[nH]c23)c1 [Example F46, 4-[2-(cyclopropylmethoxy)-5-methoxyphenyl]-N-(cis-4-{[(2S)-2-hydroxypropanoyl]amino}cyclohexyl)-6-methyl-5H-pyrrolo[3,2-d]pyrimidine-7-carboxamide] |
| < 100 nM | < 1 nM | CCC(=O)N[C@H]1CC[C@H](NC(=O)c2c(C)[nH]c3c(-c4cc(C(F)F)ccc4OCC4CC4)ncnc23)C[C@H]1F (relative stereo) [Example P200, 4-[2-(Cyclopropylmethoxy)-5-(difluoromethyl)phenyl]-N-[(1S*,3R*,4S*)-3-fluoro-4-(propanoylamino)cyclohexyl]-6-methyl-5H-pyrrolo[3,2-d]pyrimidine-7-carboxamide] |
| < 100 nM | < 1 nM | CCc1ccc(OCC2CC2)c(-c2ncnc3c(C(=O)NC4CCC(NC(=O)C(C)O)CC4)c(C)[nH]c23)c1 (stereo not drawn) [Example F96, 4-[2-(Cyclopropylmethoxy)-5-ethylphenyl]-N-(cis-4-{[(25)-2-hydroxypropanoyl]amino}cyclohexyl)-6-methyl-5H-pyrrolo[3,2-d]pyrimidine-7-carboxamide] |
| 100 to 1000 nM | < 1 nM | COCC(=O)N[C@H]1CC[C@H](NC(=O)c2c(C)[nH]c3c(-c4cc(C(C)C)ccc4OCC4CC4)ncnc23)CC1 [Example E160, 4-[2-(Cyclopropylmethoxy)-5-(propan-2-yl)phenyl]-N-{trans-4-[(methoxyacetyl)amino]cyclohexyl}-6-methyl-5H-pyrrolo[3,2-d]pyrimidine-7-carboxamide] |
| 100 to 1000 nM | < 1 nM | CCC(=O)N[C@H]1CC[C@H](NC(=O)c2c(C)[nH]c3c(-c4cc(OC)ccc4OCC4CC4)ncnc23)CC1 [Example E70, 4-[2-(Cyclopropylmethoxy)-5-methoxyphenyl]-6-methyl-N-[trans-4-(propionylamino)cyclohexyl]-5H-pyrrolo[3,2-d]pyrimidine-7-carboxamide] |
| 100 to 1000 nM | 1 to 10 nM | Cc1ccc(OCC2CC2)c(-c2ncnc3c(C(=O)N[C@H]4CCC[C@H]4O)c(C)[nH]c23)c1 [Example E177, 4-[2-(Cyclopropylmethoxy)-5-methylphenyl]-N-[(1S,2R)-2-hydroxycyclopentyl]-6-methyl-5H-pyrrolo[3,2-d]pyrimidine-7-carboxamide] |
| < 100 nM | 1 to 10 nM | COCC(=O)N1C[C@@H](NC(=O)c2c(C)[nH]c3c(-c4cc(C(F)F)ccc4OCC4CC4)ncnc23)C[C@@H]1C [Example P26, 4-[2-(Cyclopropylmethoxy)-5-(difluoromethyl)phenyl]-N-[(3S,5S)-1-(methoxyacetyl)-5-methylpyrrolidin-3-yl]-6-methyl-5H-pyrrolo[3,2-d]pyrimidine-7-carboxamide] |
| 100 to 1000 nM | < 1 nM | CCC(=O)N1CCC(NC(=O)c2c(C)[nH]c3c(-c4cc(F)ccc4OCC4CC4)ncnc23)CC1 [Example E38, 4-[2-(cyclopropylmethoxy)-5-fluorophenyl]-6-methyl-N-(1-propionylpiperidin-4-yl)-5H-pyrrolo[3,2-d]pyrimidine-7-carboxamide] |
| < 100 nM | < 1 nM | CCc1ccc(OCC2CC2)c(-c2ncnc3c(C(=O)N[C@H]4CC[C@H](NC(=O)[C@H](C)O)CC4)c(C)[nH]c23)c1 [Example F94, 4-[2-(Cyclopropylmethoxy)-5-ethylphenyl]-N-(trans-4-{[(2S)-2-hydroxypropanoyl]amino}cyclohexyl)-6-methyl-5H-pyrrolo[3,2-d]pyrimidine-7-carboxamide] |
| 100 to 1000 nM | < 1 nM | COc1ccc(OCC2CC2)c(-c2ncnc3c(C(=O)NC4CCN(C(=O)[C@H](C)O)CC4)c(C)[nH]c23)c1 [Example F42, 4-[2-(Cyclopropylmethoxy)-5-methoxyphenyl]-N-{1-[(2S)-2-hydroxypropanoyl]piperidin-4-yl}-6-methyl-5H-pyrrolo[3,2-d]pyrimidine-7-carboxamide] |
| < 100 nM | < 1 nM | COCC(=O)N[C@H]1CC[C@H](NC(=O)c2c(C)[nH]c3c(-c4cc(C(F)F)ccc4OCC4CC4)ncnc23)CC1 [Example P8, 4-[2-(Cyclopropylmethoxy)-5-(difluoromethyl)phenyl]-N-{trans-4-[(methoxyacetyl)amino]cyclohexyl}-6-methyl-5H-pyrrolo[3,2-d]pyrimidine-7-carboxamide] |
| < 100 nM | < 1 nM | CC(=O)N[C@H]1CC[C@H](NC(=O)c2c(C)[nH]c3c(-c4cc(C(F)F)ccc4OCC4CC4)ncnc23)C1 [Example P89, N-[(1S,3S)-3-(Acetylamino)cyclopentyl]-4-[2-(cyclopropylmethoxy)-5-(difluoromethyl)phenyl]-6-methyl-5H-pyrrolo[3,2-d]pyrimidine-7-carboxamide] |
| < 100 nM | < 1 nM | Cc1ccc(OCC2CC2)c(-c2ncnc3c(C(=O)NC4CCN(C(=O)[C@H](C)O)CC4)c(C)[nH]c23)c1 [Example F52, 4-[2-(Cyclopropylmethoxy)-5-methylphenyl]-N-{1-[(2S)-2-hydroxypropanoyl]piperidin-4-yl}-6-methyl-5H-pyrrolo[3,2-d]pyrimidine-7-carboxamide] |
| 100 to 1000 nM | < 1 nM | COc1ccc(OCC2CC2)c(-c2ncnc3c(C(=O)N[C@H]4CC[C@@H](NC(C)=O)CC4)c(C)[nH]c23)c1 [Example E72, N-(cis-4-acetamidocyclohexyl)-4-[2-(cyclopropylmethoxy)-5-methoxyphenyl]-6-methyl-5H-pyrrolo[3,2-d]pyrimidine-7-carboxamide] |
| < 100 nM | < 1 nM | Cc1[nH]c2c(-c3cc(C(F)(F)F)ccc3OCC3CC3)ncnc2c1C(=O)N[C@H]1CC[C@@H](NC(=O)[C@H](C)O)CC1 [Example F62, 4-[2-(Cyclopropylmethoxy)-5-(trifluoromethyl)phenyl]-N-(cis-4-{[(2S)-2-hydroxypropanoyl]amino}cyclohexyl)-6-methyl-5H-pyrrolo[3,2-d]pyrimidine-7-carboxamide] |
| 100 to 1000 nM | < 1 nM | COc1ccc(OCC2CC2)c(-c2ncnc3c(C(=O)NC4CCN(C(C)=O)CC4)c(C)[nH]c23)c1 [Example E66, N-(1-acetylpiperidin-4-yl)-4-[2-(cyclopropylmethoxy)-5-methoxyphenyl]-6-methyl-5H-pyrrolo[3,2-d]pyrimidine-7-carboxamide] |
